{
  "source": "paper PMC11996864",
  "about": "“A small-molecule inhibitor of BCL10-MALT1 interaction abrogates progression of diffuse large B cell lymphoma” (The Journal of Clinical Investigation, 2025)",
  "key": {"OCI-Ly3 cells": {"system": "OCI-Ly3 cells", "assay": "cells", "set-up": "species or system TMD8 or OCI-Ly3; Inhibition of spontaneous IL-10 secretion from ABC-DLBCL cells, human IL-10 ELISA of supernatants", "conditions": "Homo sapiens, OCI-Ly3, 20 h; IL-10 secretion; read-out: IC50 (µM) IL-10 inhibition", "protocol": "Cytokine ELISAs. Cytokines in cell culture supernatants were measured 20-24h after treatment with 0, 0.01, 0.03, 0.1, 0.3, 1, or 3 µM of compounds using the following ELISA kits according to the manufacturer’s instructions: Human IL-2 ELISA (BioLegend Cat# 431804), Human IL-6 ELISA (BioLegend Cat# 430504), and Human IL-10 ELISA (BioLegend Cat# 430604). TMD8 and OCI-Ly3 cells were treated with specific doses of compounds in serum-free media for 20 hours. Jurkat T cells were pretreated with specific doses of compounds for 8 hours in serum-free media, then stimulated with PMA/ionomycin for 16 hours prior to the collection of supernatants. Mouse splenocytes were isolated from spleens of C57/BL6 mice by passing spleens through a 70 micron filter followed by red blood cell lysis using ACK lysing buffer (Quality Biologics, Cat# 118-156-101). […] Supernatant was collected at 24 hours and mouse IL-2 levels were analyzed via ELISA (R&D Systems, Cat# DY402-05). IL-6 and IL-10 are NF-κB–induced cytokines that promote the proliferation and survival of malignant B cells through both autocrine and paracrine mechanisms ([44]), and are negative prognostic factors in ABC-DLBCL ([45], [46]). ABC-DLBCL cell lines spontaneously secrete substantial levels of IL-6 and IL-10, whereas GCB-DLBCL cell lines express only a negligible amount of these cytokines ([24]). […] The IC50 for inhibition of cytokine secretion by each compound in each cell line is reported in Supplemental Table 1.  Figure 4 M1i-124 and M1i-124d1 inhibit MALT1 protease and scaffolding functions, and MALT1-dependent cytokine secretion, in ABC-DLBCL cells. (A and B) Effect of 1 μM compound pretreatment on constitutive RelB cleavage (A) and IκB phosphorylation (B) within TMD8 cells. Representative Western blots are shown along with quantification (mean ± SEM; n = 2). (C) IL6 and IL10 mRNA levels in TMD8 cells treated with 1 μM M1i-124 or M1i-124d1 (mean ± SEM; n = 6). […] Statistical analyses were performed using 1-way ANOVA and Dunnett’s multiple-comparison test. **P < 0.01, ***P < 0.001, ****P < 0.0001."}, "[1]": {"system": "IL-2 secretion from primary mouse splenocytes", "assay": "Secreted IL-2 ELISA, stimulated primary splenocytes", "type": "cell-based", "conditions": "for IL-2 protein level (% of control): Suppl Fig. 4B", "source_text": "Plasmids. Plasmids for transfection were verified with Sanger Sequencing. Unless otherwise indicated, plasmids were made by subcloning cDNA fragments from constructs described in previous publications, as noted, and/or site directed mutagenesis. Plasmids in the pcDNA3 or pcDNA3.1 backbone include HA-MALT1(isoform B) (2), HA-MALT1(DD+Ig1-2) (aa 1- […]\nMALT1(Ig1-2) V189R, HA-MALT1(Ig1-2) W203_Q205delinsAAA (Vector Builder), HA-MALT1(Ig1-2) H257_Q259delinsAAA (Vector Builder), HA-MALT1(Ig1-2)\nP254_P256delinsAAA (Vector Builder), HA-MALT1(Ig1-2) H269_T271delinsAAA (Vector Builder), HA-MALT1(Ig1-2) K272_L274delinsAAA (Vector Builder), HA-MALT1 V189R (Vector Builder), HA-MALT1 V81R, HA-BCL10 (GeneCopoeia, Cat# M0769-M07), HA-BCL10 E53R, Myc-BCL10 (previously called CIPER) (3), Myc-BCL10 E53R, Myc-RICK (4), Myc-MAVS (subcloned from FLAG-MAVS (5)), and empty vector pCDNA3.1HA as a control.\nELISA-based protein-protein interaction assay. On a high-binding 96-well ELISA microplate (Greiner Cat# 655061), 100 ng of His-tagged recombinant human full-length BCL10 protein (Novus Cat# NBP1-99064) or in 100 µl PBS was allowed to adhere overnight at 4°C. The plate was blocked with 5% BSA in PBS for 1 hour at room temperature. After washing twice with PBS-T, a mixture of 100 ng of GST-tagged recombinant human full-length MALT1 protein (Novus Biologicals Cat# H00010892-P01) and compound that was preincubated for 1 hour in 100 μl PBS was added to the plate for 1 hour at room temperature. After washing three times with PBS-T, anti-MALT1 antibody (Cell Signaling Technology, Cat# 2494) in 5% BSA in PBS was added at 1:1000 dilution for 1 hour at room temperature. After washing three times with PBS-T, HRP-conjugated secondary antibody in 5% BSA in PBS was added at 1:5000 dilution for 1 hour at room temperature. After washing three times with PBS-T, 100 µl of 3,3’,5,5’-tetramethylbenzidine (TMB) substrate solution (Thermo Scientific, Cat# 34028) was added for up to 15 minutes, and 100 µl of 2 M sulfuric acid was added to stop the reaction. The plate was read at 450 nm using a spectrophotometer (Molecular Devices SpectraMax i3). The MyoD1/ID ELISA was performed as above except that 100 ng of recombinant human His-tagged MyoD1 (Proteintech, Cat# Ag13186) was plated overnight at 4°C prior to the addition of 100 ng of recombinant human GST-ID1 (Proteintech, Cat# Ag13359) preincubated to with compounds. The anti-GST antibody (clone 26H1, Cell signaling Technology, Cat #2624) was used to detect bound ID1.\nCytokine ELISAs. Cytokines in cell culture supernatants were measured 20-24h after treatment with 0, 0.01, 0.03, 0.1, 0.3, 1, or 3 µM of compounds using the following ELISA kits according to the manufacturer’s instructions: Human IL-2 ELISA (BioLegend Cat# 431804), Human IL-6 ELISA (BioLegend Cat# 430504), and Human IL-10 ELISA (BioLegend Cat# 430604). TMD8 and OCI-Ly3 cells were treated with specific doses of compounds in serum-free media for 20 hours. Jurkat T cells were pretreated with specific doses of compounds for 8 hours in serum-free media, then stimulated with PMA/ionomycin for 16 hours prior to the collection of supernatants.\nMouse splenocytes were isolated from spleens of C57/BL6 mice by passing spleens through a 70 micron filter followed by red blood cell lysis using ACK lysing buffer (Quality Biologics, Cat# 118-156-101). […]\nMouse T-Activator CD3/C28. Supernatant was collected at 24 hours and mouse IL-2 levels were analyzed via ELISA (R&D Systems, Cat# DY402-05)."}},
  "note": "Values joined by “and” are separate entries in the source; they are usually repeats but may differ in a detail not shown here. Equal entries are not always repeated.",
  "data": [
    {"smiles": "O=S(=O)(NCc1ccc2c(c1)OCO2)c1ccc(Cc2ccc(S(=O)(=O)NCc3ccc4c(c3)OCO4)cc2)cc1", "note": "[M1i-124]", "values": [
      {"measurement": "IC50", "setting": "OCI-Ly3 cells", "value": 0.7, "unit": "µM"},
      {"measurement": "IL-2 secretion from primary mouse splenocytes", "setting": "[1]; 1 μM, PMA/Iono or anti-CD3/CD28, result in words", "value": "reduced IL-2 secretion"},
      {"measurement": "IL-2 protein level (% of control)", "setting": "[1]; CD3/CD28 treated", "value": "50.4652 % of control and 31.9351 % of control and 38.7736 % of control"},
      {"measurement": "IL-2 protein level (% of control)", "setting": "[1]; PMA/Iono treated", "value": "60.6294 % of control and 65.2902 % of control and 36.6638 % of control"}
    ]},
    {"smiles": "COc1ccc(CNS(=O)(=O)c2ccc(Cc3ccc(S(=O)(=O)NCc4ccc(OC)cc4)cc3)cc2)cc1", "note": "[M1i-124d1]", "values": [
      {"measurement": "IC50", "setting": "OCI-Ly3 cells", "value": 2.2, "unit": "µM"}
    ]},
    {"smiles": "CN1CCCC(CN2c3ccccc3Sc3ccccc32)C1", "note": "(stereo not shown) [Mepazine, mepazine, reference compound]", "values": [
      {"measurement": "IL-2 protein level (% of control)", "setting": "[1]; CD3/CD28 treated, 1 uM", "value": "96.0182 % of control and 76.5551 % of control"},
      {"measurement": "IL-2 protein level (% of control)", "setting": "[1]; PMA/Iono treated, 1 uM", "value": "66.5904 % of control and 66.2291 % of control"}
    ]}
  ]
}
